In ChEMBL document CHEMBL3832061:

Columns and labels:
Homo sapiens = assay: (§1) Pharmacokinetic parameters for Zolmitriptan following oral administration of Zolmitriptan tablets to subjects with different healthy conditions.; format: ADME, organism-based; details: in vivo
[1] = as §1; format: ADME, organism-based; details: human, in vivo

CN(C)CCc1c[nH]c2ccc(C[C@H]3COC(=O)N3)cc12 [ZOLMITRIPTAN]
Tmax (Homo sapiens): 3 hr [middle of 4 runs] | Vd (Homo sapiens): 7 L/kg | CL/F [1]: 31.5 mL/min/kg | dose excreted ([1]; read-out: Excretion): 8%
